# Results taken from patent publication US20230381321A1, “CAMPTOTHECIN CONJUGATES” (priority 2022, published 2023).
# pIC50: −log10 of the molar value. Read-outs that look alike come from different tables or passages of the source.
# Experiments:
# Format in all cases: cell-based
# [1] = system: anaplastic large cell lymphoma cells (DELBVR); experiment: In vitro potency (CellTiter-Glo, 96 h) on DELBVR; conditions: 96 h, read-out: DELBVR IC50
# Outline: (§1)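 Luminescent viability signal reports growth inhibition after continuous exposure of cells to serially diluted […]. Cells, grown in RPMI 1640 plus 20% FBS, had been plated in log phase one day before dosing.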
# [2] = system: non-small-cell lung cancer cells (Calu1); experiment: In vitro potency (CellTiter-Glo, 96 h) on Calu1; conditions: Homo sapiens, Calu-1, 96 h, read-out: Calu1 IC50
# Method: (§2) In vitro potency was assessed on multiple cancer cell lines. All cell lines were authenticated by STR profiling at IDEXX Bioresearch and cultured for no more than 2 months after resuscitation. Cells cultured in log-phase growth were seeded for 24 hours in 96-well plates containing […] RPMI 1640 supplemented with 20% FBS. Serial dilutions of antibody-drug conjugates in cell culture media were prepared at 4x working concentrations, and 50 μL of each dilution was added to the 96-well plates. Following addition of test articles, cells were incubated with test articles for 4 days at […]. After 96 hours, growth inhibition was assessed by CellTiterGlo® (Promega, Madison, WI) and luminescence was measured on a plate reader.
# (§3) Cell viability was determined by CellTiter-Glo staining after 96h exposure to ADC. ND=Not Determined. In the following tables, “Ex_” refers to a drug linker number. For example, “Ag4-Ex_4a” refers to a conjugate of an Ag4 antibody with drug linker 4a.
# [3] = system: pancreatic cancer cells (BxPC3); experiment: In vitro potency (CellTiter-Glo, 96 h) on BxPC3; conditions: Homo sapiens, BXPC-3, 96 h, read-out: BxPC3 IC50
# Outline: as §1
# [4] = In vitro potency (CellTiter-Glo, 96 h) on Ls174T; conditions: Homo sapiens, LS174T, read-out: Ls174T IC50
# Outline: as §1
# melanoma cells (A2058) = experiment: In vitro potency (CellTiter-Glo, 96 h) on A2058; conditions: Homo sapiens, A2058, 96 h, read-out: A2058 IC50
# Method: as §2, §3
# [5] = system: renal carcinoma cells (786-O); experiment: In vitro potency (CellTiter-Glo, 96 h) on 786-O; conditions: Homo sapiens, 786-0, 96 h, read-out: 786-O IC50
# Outline: as §1
# [6] = system: B-lymphocyte cancer cells (SU-DHL4); experiment: In vitro potency (CellTiter-Glo, 96 h) on SU-DHL4; conditions: Homo sapiens, SU-DHL-4, 96 h, read-out: SU-DHL-4 IC50
# Outline: as §1
# [7] = system: breast cancer cells (MDA-MB-231); experiment: In vitro potency (CellTiter-Glo, 96 h) on MDA-MB-231; conditions: Homo sapiens, MDA-MB-231, 96 h, read-out: MDAMB 231 IC50
# Outline: as §1
# [8] = system: acute myeloid leukemia cells (MOLM-13); experiment: In vitro potency (CellTiter-Glo, 96 h) on MOLM-13; conditions: Homo sapiens, MOLM-13, 96 h, read-out: MOLM-13 IC50
# Outline: as §1
# [9] = system: anaplastic large cell lymphoma cells (DEL); experiment: In vitro potency (CellTiter-Glo, 96 h) on DEL; conditions: 96 h, read-out: DEL IC50
# Outline: as §1
# [10] = system: Hodgkin's lymphoma cells (L540cy); experiment: In vitro potency (CellTiter-Glo, 96 h) on L540cy; conditions: L540cy, 96 h, read-out: L540cy IC50
# Outline: as §1
# [11] = system: anaplastic large cell lymphoma cells (Karpas299); experiment: In vitro potency (CellTiter-Glo, 96 h) on Karpas299; conditions: Homo sapiens, KARPAS-299, 96 h, read-out: Karpas299 IC50
# Outline: as §1
# [12] = CPT free drugs, CellTiter-Glo after 96 h exposure
Structure (SMILES),"pIC50 [1, 12]","pIC50 [2, 12]","pIC50 [3, 12]","pIC50 [4, 12]",pIC50 (melanoma cells (A2058); [12]),"pIC50 [5, 12]","pIC50 [6, 12]","pIC50 [7, 12]","pIC50 [8, 12]","pIC50 [9, 12]","pIC50 [10, 12]","pIC50 [11, 12]",pIC50 [2],pIC50 [8],other results
CC[C@@]1(O)C(=O)OCc2c1cc1n(c2=O)Cc2c-1nc1ccc(SC)c(F)c1c2CN [Compound 2au],9.00,8.15,8.22,8.70,8.52,8.40,8.70,9.00,7.40,9.00,9.00,8.30,–,–,–
CC[C@@]1(O)C(=O)OCc2c1cc1n(c2=O)Cc2c-1nc1ccc3c(c1c2CN)SCC3 [Compound 2av],8.40,7.60,7.47,7.96,8.40,7.66,8.10,8.05,6.63,8.30,8.30,7.59,–,–,–
CC[C@@]1(O)C(=O)OCc2c1cc1n(c2=O)Cc2c-1nc1cc(F)cc(Br)c1c2CN [Compound 2aw],7.82,6.57,6.83,< 6.00,7.74,7.24,7.66,6.34,6.70,7.82,7.60,7.44,–,–,–
"CC[C@@]1(O)C(=O)OCc2c1cc1n(c2=O)Cc2c-1nc1cc3c(cc1c2CN)CCO3 [Compound 2n, (5S)-14-(aminomethyl)-5-ethyl-5-hydroxy-7,20-dioxa-11,24-diazahexacyclo[11.11.0.02,11.04,9.015,23.017,21]tetracosa-1(24),2,4(9),13,15(23),16,21-heptaene-6,10-dione;2,2,2-trifluoroacetic acid]",–,–,–,–,–,–,–,–,–,–,–,–,7.74,7.54,pIC50 [1]: 9.00; pIC50 [3]: 8.52; pIC50 ([4]; 96 h): 8.40; pIC50 (melanoma cells (A2058)): 8.52; pIC50 [5]: 8.30; pIC50 [6]: 9.00; pIC50 [7]: 8.10; pIC50 [9]: 9.00; pIC50 [10]: 8.70; pIC50 [11]: 8.30
CC[C@@]1(O)C(=O)OCc2c1cc1n(c2=O)Cc2c-1nc1cc3c(cc1c2CN)CC=C3 [Compound 5],8.40,–,7.40,< 6.00,8.15,7.80,8.15,6.66,–,8.40,8.05,8.00,6.89,6.59,–
CC[C@@]1(O)C(=O)OCc2c1cc1n(c2=O)Cc2c-1nc1cccc(OC)c1c2CN [Compound 5a],8.00,6.41,6.81,< 6.00,7.80,7.25,7.92,6.46,7.14,8.15,7.70,7.55,–,–,–
CC[C@@]1(O)C(=O)OCc2c1cc1n(c2=O)Cc2c-1nc1cc3c(c(F)c1c2CN)CCC3 [Compound 5b],7.82,7.27,6.89,7.35,7.77,7.16,7.57,7.44,< 6.00,7.77,8.00,7.34,–,–,–
"CC[C@@]1(O)C(=O)OCc2c1cc1n(c2=O)Cc2c-1nc1cc(F)c(C)c(C=C(C)C)c1c2CN [Compound 6, (S)-11-(aminomethyl)-4-ethyl-8-fluoro-4-hydroxy-9-methyl-10-(2-methylprop-1-en-1-yl)-1,12-dihydro-14H-pyrano[3′,4′:6,7]indolizino[1,2-b]quinoline-3,14(4H)-dione]",–,–,–,–,–,–,–,–,–,–,–,–,7.77,8.40,pIC50 [1]: 8.52; pIC50 [3]: 8.10; pIC50 ([4]; 96 h): 7.68; pIC50 (melanoma cells (A2058)): 8.30; pIC50 [5]: 8.30; pIC50 [6]: 8.70; pIC50 [7]: 8.15; pIC50 [9]: 9.00; pIC50 [10]: 8.40; pIC50 [11]: 8.40
